Data taken from patent US9611246B2, “Compositions, apparatus, systems, and methods for resolving electronic excited states” (HALLSTAR INNOVATIONS CORP., priority 2012, dated 2017).

Experiments:
[1] = UV and visible light absorption spectra of stabilizers; assay type: physicochemical; conditions: acetonitrile
Experimental: UV and visible light absorption spectra were recorded to investigate to what extent each stabilizer itself absorbs UV light. […] Protoporphyrin IX has weak absorption bands above 450 nm, where the two compounds are transparent (FIG. 2). The compound with the oxygen bridge (Formula II(d)(1)) caused a bathocromic shift of the UV absorption of the lowest energy band. The compound with the sulfur bridge (Formula II(e)(1)) shifted the lowest energy band further into the visible region.

[2] = Singlet oxygen generation by stabilizers upon direct UV photolysis at 355 nm; assay type: physicochemical; conditions: air saturated CCl4, benzophenone as reference
Experimental: To investigate to what extent the stabilizers can generate singlet oxygen upon direct UV photolysis, singlet oxygen phosphorescence measurements were performed under photolysis at 355 nm. For these experiments CCl4 was selected as solvent, because of the long lifetime of singlet oxygen in this solvent, which makes these experiments easier to perform. Weak singlet oxygen signals were observed upon photolysis at 355 nm (FIG. 12). Using benzophenone as reference (quantum yield of singlet oxygen generation: 0.35) the low quantum yields of singlet oxygen generation were estimated: compound of Formula I(a)(1): 0.015 and alkoxy crylene: ˜0.001.
To ensure that the observed weak singlet oxygen signals truly originated from the two compounds and not from possible impurities in the sample or solvent, singlet oxygen phosphorescence excitation spectra were recorded.

[3] = Solubility in DMSO, PBS buffer and cell culture media; assay type: physicochemical
Experimental: All Conjugated fused polycyclic compounds tested (including Formulas II(a)(1), II(b)(1) and II(c)(1), and II(bk)) are highly soluble in DMSO, but poorly soluble in PBS buffer and cell culture medium. Formulas II(b)(1) and II(c)(1) can remain soluble in PBS buffer or cell culture medium if its concentration is less 0.2 mM. At concentrations higher than 0.2 mM, the solution begins to cloud and become emulsion like. This emulsion is able to remain stable for as long as 8 hours. Formula II(bk) is less soluble in PBS buffer and cell culture medium. It was only observed to dissolve in PBS at concentrations of 0.1 mM or less. Similar to Formulas II(b)(1) and II(c)(1), increasing Formula II(bk) concentration above 0.1 mM results in a cloudy emulsion like solution. But this cloudy solution is fairly stable and can be kept for more than 3 days.

[4] = Singlet oxygen phosphorescence from protoporphyrin IX dimethyl ester in air saturated CDCl3, 532 nm; assay type: physicochemical; conditions: MePPIX 25 μM
Experimental: Singlet oxygen phosphorescence experiments were performed to investigate if the large differences in triplet quenching rate constants have an impact on the observed singlet oxygen yields. The dimethyl ester derivative of PPIX (MePPIX, Formula IV(c)) was selected as sensitizer, because of better solubility in a solvent with long singlet oxygen lifetime (CDCl3).
The excited state properties of protoporphyrin IX should not be effected by the methyl ester functionality. Air saturated CDCl3 of MePPIX were excited with a pulsed Nd-YAG laser with visible light at 532 nm, where the stabilizers are mostly transparent. […] The lack of singlet oxygen suppression is consistent with the lack of observable quenching of singlet or triplet excited states of PPIX by alkoxy crylene.

[5] = tested on: HaCat cells; assay: Dark toxicity analysis in HaCat cells (no irradiation); assay type: cell-based, human; conditions: 1 mM with ALA, no red light irradiation
Experimental: To make sure that ALA and conjugated fused polycyclics treatments themselves are not influencing cell viability, (or cause cellular toxicity), dark toxicity analysis was performed. The experiment procedures were exactly same as above for cell viability analysis except that the red light irradiation step was omitted.

[6] = tested on: visible light-induced free radicals in pig skin; assay: Visible light-induced free radicals in ALA-treated pig skin by Electron Spin Resonance; conditions: for Free Radicals (%): relative to 0 mM; for Free Radicals (a.u.): topical, ALA-treated pig skin
Experimental: A conjugated fused tricycle compound according to Formula II(a)(1) reduced visible light-induced free radicals in skin by up to 89% and did so in a dose-dependent manner (FIG. 21). The study was conducted using pig skin, which is recognized for its similarity to human skin. Topical application of aminolevulinic acid (ALA) induced the skin to over-produce the endogenous photosensitizer Protoporphyrin IX (PPIX). Solutions of Formula II(a)(1) at different concentrations were then topically applied to the ALA treated skin after which it was exposed to bright green light. The resulting free radical content of the skin was then measured by Electron Spin Resonance (ESR). Studies conducted in solution have shown that Formula II(a)(1) suppresses singlet oxygen production by PPIX. […] The mechanisms of action of Formula II(a)(1) and Tocopherol are different: the former prevents free radicals from forming; the latter scavenges free radicals after they appear.

[7] = tested on: HaCat cells; assay: Cell viability of ALA-treated HaCat cells after red light irradiation; assay type: cell-based, human; conditions: 1 mM
Experimental: HaCat cells were seeded in 96-well plates and grown to confluence. Confluent cells were treated with 8 mM ALA for 2 hours. Cells then received 1 mM of Formula II(a)(1), II(b)(1)+II(c)(1), or II(bk). Following a one-hour incubation, cells were irradiated for 3 minutes and immediately washed with naïve cell culture media once. Additional cell culture media was added and the cells were cultured for 24 hours. A cell viabilty agent was added to each well and incubated for 2 hours. Cell viability was analyzed at the conclusion of this incubation by measuring the fluorescence intensity (excitation/emission 560/590) of each well. Results shown in FIG. 26 indicate that control cells (without conjugated fused polycyclic compound treatment) were almost completely killed by phototoxic ROS induced by ALA and light irradiation. Cell viability (cell metabolic activity) of light irradiated cells (without conjugated fused polycyclic) was only […] of normal cell control (no treatment). […] About 50% of Formula II(a)(1) treated cells survived, while cells without conjugated fused polycyclic compound exposure and cells treated with II(bk) were almost 100% dead. […] The Formula II(a)(1) was also observed to protect cells from light irradiation induced injury (relative cell viability 61%). […]

With `COC(=O)C(C#N)=C1c2ccccc2-c2ccccc21` [Formula I(a)(1)] the λmax [1] was 334 nm, the “extinction coefficient (molar absorptivity)” value ([1]; at λmax) was 16,200 M −1 cm −1 and the “quantum yield of singlet oxygen generation” value [2] was 0.015.

In the case of `COC(=O)C(C#N)=C1c2ccccc2C(=O)c2ccccc21` [Formula II(a)(1)], the “solubility in PBS buffer and cell culture medium (in words)” value [3] is reported as “especially difficult to dissolve”, the stability of solution ([3]; 0.05 mM in PBS buffer) is reported as “not observed to be stable for long” and the precipitation ([3]; one hour after adding to PBS buffer or cell culture medium) is reported as “almost all Formula II(a)(1) precipitatde”. For the same compound, the “suppression of singlet oxygen generation” value [4] was “largest suppression”, the dark toxicity [5] was “a little toxicity” and the “Free Radicals (%)” value ([6]; 1.25 mM) was 92%. For the same compound, the “Free Radicals (a.u.)” value ([6]; 1.25 mM) was 2311 ± 331 a.u, the “Free Radicals (%)” value ([6]; 2.5 mM) was 46% and the “Free Radicals (a.u.)” value ([6]; 2.5 mM) was 1162 ± 225 a.u. For the same compound, the “Free Radicals (%)” value ([6]; 5 mM) was 11%, the “Free Radicals (a.u.)” value ([6]; 5 mM) was 270 ± 88 a.u and the “Free Radicals (%)” value ([6]; 10 mM) was 19%. For the same compound, the “Free Radicals (a.u.)” value ([6]; 10 mM) was 475 ± 212 a.u, the “reduction of visible light-induced free radicals in skin” value ([6]; dose-dependent, maximum) was “up to 89%” and the “free radical reduction compared with Tocopherol” value ([6]; same conditions) was “superior to Tocopherol”. For the same compound, the relative cell viability ([7]; 8 mM ALA, 3 minutes irradiation, 24 hours culture, vs normal cell control) was 61% and the “treated cells that survived” value ([7]; after irradiation) was “About 50%”.
